From paper PMC9393241, “Design, Synthesis, and Activity Assays of Cyclin-Dependent Kinase 1 Inhibitors With Flavone Scaffolds” (Frontiers in Chemistry, 2022)

Columns and labels:
CDK1/cyclin B1 = molecular target: T1, CDK1/cyclin B1 (Homo sapiens, UniProt P06493); experiment: In vitro anti-CDK1/cyclin B1 kinase assay (Kinase-Glo luminescence); assay type: biochemical; settings: for inhibition at 20 µM: test compounds at 20 μM, read-out: Inhibition rates (%) CDK1; for Selectivity: CDK1 compared with CDK4 (CDK4 IC50 / CDK1 IC50)
T1 construct: purchased
T1 sequence (P06493 whole entry): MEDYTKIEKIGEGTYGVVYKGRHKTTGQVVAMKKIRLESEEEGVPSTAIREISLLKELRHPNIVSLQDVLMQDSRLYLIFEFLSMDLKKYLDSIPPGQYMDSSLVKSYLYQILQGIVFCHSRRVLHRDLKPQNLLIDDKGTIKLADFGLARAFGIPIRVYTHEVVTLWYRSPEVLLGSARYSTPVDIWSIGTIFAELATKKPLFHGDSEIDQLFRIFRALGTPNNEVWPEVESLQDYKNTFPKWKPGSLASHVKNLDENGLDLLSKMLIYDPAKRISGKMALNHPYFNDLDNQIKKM
T1 sequence (P14635 whole entry partner): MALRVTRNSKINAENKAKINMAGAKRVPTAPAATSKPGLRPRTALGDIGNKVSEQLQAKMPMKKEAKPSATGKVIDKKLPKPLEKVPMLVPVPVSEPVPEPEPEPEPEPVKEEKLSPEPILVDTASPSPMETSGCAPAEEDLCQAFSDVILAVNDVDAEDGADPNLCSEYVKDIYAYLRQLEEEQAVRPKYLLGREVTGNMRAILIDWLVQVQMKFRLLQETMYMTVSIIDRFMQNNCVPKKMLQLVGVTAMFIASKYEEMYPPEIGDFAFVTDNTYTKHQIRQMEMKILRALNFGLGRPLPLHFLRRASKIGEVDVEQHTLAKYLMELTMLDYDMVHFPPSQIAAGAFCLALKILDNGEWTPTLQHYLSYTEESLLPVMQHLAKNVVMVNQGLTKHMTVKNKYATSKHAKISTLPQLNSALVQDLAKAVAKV
Method: (§1) In vitro anti-CDK1/cyclin B1 and CDK4/cyclin D3 assays were performed as described by the manufacturer. All test compounds and controls were dissolved in dimethyl sulfoxide (DMSO) to prepare 50 μM stock solutions. The stock solutions were diluted by double-distilled water and buffer to 40, 30, 20, and 10 μM working concentrations and stored at −20°C. Buffer, ATP, CDK substrate […], and distilled water were mixed, and then 25 μl of the mixture was added to a 96-well plate. Five microliters of 20 μM test compounds were sequentially added. CDK1/cyclin B1 was diluted to 1 ng/μl, and CDK4/cyclin D3 was diluted to 10 ng/μl using a buffer. Twenty microliters of the kinase solutions were incubated with the test compounds at 30°C for 45 min for CDK1/cyclin B1 and for 60 min for CDK4/cyclin D3. Finally, 50 μl of Kinase-Glo Max reagent was added to each well. The 96-well plate was covered with aluminum foil and incubated at room temperature for 15 min. Luminescence of the test compounds was measured with a microplate reader.

CDK4/cyclin D3 = molecular target: T2, CDK4/cyclin D3 (Homo sapiens, UniProt P11802); experiment: In vitro anti-CDK4/cyclin D3 kinase assay (Kinase-Glo luminescence); assay type: biochemical; settings: for inhibition at 20 µM: test compounds at 20 μM, read-out: Inhibition rates (%) CDK4
T2 construct: purchased
T2 sequence (P11802 whole entry): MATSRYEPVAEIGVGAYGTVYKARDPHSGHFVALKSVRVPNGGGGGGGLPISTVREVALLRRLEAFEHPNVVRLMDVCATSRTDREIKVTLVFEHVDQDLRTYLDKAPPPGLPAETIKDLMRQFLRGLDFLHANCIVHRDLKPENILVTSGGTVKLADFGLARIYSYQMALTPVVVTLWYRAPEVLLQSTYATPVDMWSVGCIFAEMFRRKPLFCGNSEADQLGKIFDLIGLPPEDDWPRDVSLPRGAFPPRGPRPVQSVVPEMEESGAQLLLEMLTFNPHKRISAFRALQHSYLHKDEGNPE
T2 sequence (P30281 whole entry partner): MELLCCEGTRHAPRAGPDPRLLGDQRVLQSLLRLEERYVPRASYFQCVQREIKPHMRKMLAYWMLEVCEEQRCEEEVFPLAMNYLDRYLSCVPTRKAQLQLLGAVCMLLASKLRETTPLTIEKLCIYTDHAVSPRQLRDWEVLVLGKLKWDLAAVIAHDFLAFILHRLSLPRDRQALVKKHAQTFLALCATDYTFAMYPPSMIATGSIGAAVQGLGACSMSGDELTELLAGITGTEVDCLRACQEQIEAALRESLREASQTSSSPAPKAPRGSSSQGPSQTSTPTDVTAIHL
Method: as §1

SMILES	inhibition at 20 µM (CDK1/cyclin B1) [%]	melting point [°C]	IC50 (CDK1/cyclin B1) [µM]	inhibition at 20 µM (CDK4/cyclin D3) [%]	Selectivity (CDK1/cyclin B1)	IC50 (CDK4/cyclin D3) [µM]
COc1ccc(-c2cc(=O)c3c(O)cc(O)c(CN4CCSCC4)c3o2)cc1 [Compound 11a, 5,7-Bihydroxy-2-(4-methoxyphenyl)-8-(thiomorpholinomethyl)-4H-chromen-4-one]	26.12 ± 0.1	211 to 213.4	–	–	–	–
COc1ccc(-c2cc(=O)c3c(O)cc(OCCCCBr)cc3o2)cc1 [Compound 12d, 7-(4-Bromobutoxy)-5-hydroxy-2-(4-methoxyphenyl)-4H-chromen-4-one]	36.91 ± 0.08	178.9 to 179.8	51.4 ± 1.56	3.47 ± 0.04	–	–
COc1ccc(-c2cc(=O)c3c(O)c(CN4CCCC4)c(O)c(CN4CCCC4)c3o2)cc1 [Compound 10a, 5,7-Dihydroxy-2-(4-methoxyphenyl)-6,8-bis(pyrrolidin-1-ylmethyl)-4H-chromen-4-one]	24.07 ± 0.1	207.1 to 207.3	–	4.68 ± 0.07	–	–
CCCN(CCC)Cc1c(O)c(O)c(O)c2c(=O)cc(-c3ccccc3)oc12 [Compound 1d]	31.11 ± 0.1	–	–	2.47 ± 0.08	–	–
O=c1cc(-c2ccccc2)oc2c(CN3CCSCC3)c(O)c(CN3CCSCC3)c(O)c12 [Compound 5d, 5,7-Dihydroxy-2-phenyl-6,8-bis(thiomorpholinomethyl)-4H-chromen-4-one]	30.39 ± 0.09	211 to 212.4	–	–	–	–
O=c1cc(-c2ccccc2)oc2c(CN3CCOCC3)c(OCc3ccccc3)c(O)c(O)c12 [Compound 3a, 7-(Benzyloxy)-5,6-dihydroxy-8-(morpholinomethyl)-2-phenyl-4H-chromen-4-one]	38.11 ± 0.09	218.3 to 219.8	42.2 ± 1.62	2.73 ± 0.06	12.88	543.8 ± 4.83
O=c1cc(-c2ccccc2)oc2c(CN3CCOCC3)c(O)c(O)c(O)c12 [Compound 1a]	25.48 ± 0.11	–	–	6.71 ± 0.07	–	–
COc1ccc(-c2cc(=O)c3c(O)c(CN4CCSCC4)c(O)c(CN4CCSCC4)c3o2)cc1 [Compound 10b, 5,7-Dihydroxy-2-(4-methoxyphenyl)-6,8-bis(thiomorpholinomethyl)-4H-chromen-4-one]	29.54 ± 0.11	214.2 to 215.5	–	–	–	–
COc1cc(O)c2c(=O)cc(-c3ccccc3)oc2c1 [Compound 7b, 5-Hydroxy-7-methoxy-2-phenyl-4H-chromen-4-one]	21.27 ± 0.09	–	–	1.76 ± 0.05	–	–
COc1cc2oc(-c3ccccc3)cc(=O)c2c(O)c1CN1CCSCC1 [Compound 8b, 5-Hydroxy-7-methoxy-2-phenyl-6-(thiomorpholinomethyl)-4H-chromen-4-one]	20.47 ± 0.08	210.3 to 212	–	–	–	–
COc1ccc(-c2cc(=O)c3c(O)cc(O)cc3o2)cc1 [acacetin, reference compound]	34.64 ± 0.11	–	31.9 ± 1.08	10.44 ± 0.07	6.45	206 ± 3.61
CCCN(CCC)Cc1c(O)cc2oc(-c3ccc(OC)cc3)cc(=O)c2c1O [Compound 9b, 6-((Dipropylamino)methyl)-5,7-dihydroxy-2-(4-methoxyphenyl)-4H-chromen-4-one]	30.69 ± 0.1	180.6 to 181.3	–	8.55 ± 0.09	–	–
O=c1cc(-c2ccccc2)oc2c(CN3CC=CC3)c(O)c(CN3CC=CC3)c(O)c12 [Compound 5b, 6,8-Bis((2H-pyrrol-1(5H)-yl)methyl)-5,7-dihydroxy-2-phenyl-4H-chromen-4-one]	28.66 ± 0.11	172.7 to 174.3	–	–	–	–
O=c1cc(-c2ccccc2)oc2c(CN3CCCC3)c(O)c(CN3CCCC3)c(O)c12 [Compound 5a, 5,7-Dihydroxy-2-phenyl-6,8-bis(pyrrolidin-1-ylmethyl)-4H-chromen-4-one]	29 ± 0.12	194.9 to 196.6	–	7.22 ± 0.08	–	–
CN1CCN(Cc2c(O)cc3oc(-c4ccccc4)cc(=O)c3c2O)CC1 [Compound 4b, 5,7-Dihydroxy-6-((4-methylpiperazin-1-yl)methyl)-2-phenyl-4H-chromen-4-one]	28.14 ± 0.12	179.5 to 180.1	–	–	–	–
O=c1cc(-c2ccccc2)oc2cc(O)c(CN3CCCC3)c(O)c12 [Compound 4a, 5,7-Dihydroxy-2-phenyl-6-(pyrrolidin-1-ylmethyl)-4H-chromen-4-one]	31.72 ± 0.1	195.2 to 196.3	–	–	–	–
COc1ccc(-c2cc(=O)c3c(O)cc(OCc4ccccc4)cc3o2)cc1 [Compound 12a, 7-(Benzyloxy)-5-hydroxy-2-(4-methoxyphenyl)-4H-chromen-4-one]	32.38 ± 0.11	181.6 to 182.7	–	6 ± 0.04	–	–

SMILES	inhibition at 20 µM (CDK1/cyclin B1) [%]	melting point [°C]	IC50 (CDK1/cyclin B1) [µM]	inhibition at 20 µM (CDK4/cyclin D3) [%]	Selectivity (CDK1/cyclin B1)	IC50 (CDK4/cyclin D3) [µM]
COc1ccc(-c2cc(=O)c3c(O)c(CN(C)C)c(O)c(CN(C)C)c3o2)cc1 [Compound 10d, 6,8-Bis((dimethylamino)methyl)-5,7-dihydroxy-2-(4-methoxyphenyl)-4H-chromen-4-one]	35.53 ± 0.08	191.6 to 193.7	–	2.73 ± 0.08	–	–
O=c1cc(-c2ccccc2)oc2cc(OCCCCBr)cc(O)c12 [Compound 7d, 7-(4-Bromobutoxy)-5-hydroxy-2-phenyl-4H-chromen-4-one]	19.74 ± 0.11	162.6 to 163.6	–	1.83 ± 0.06	–	–
O=c1cc(-c2ccccc2)oc2c(CN3CCSCC3)c3c(c(O)c12)OCCCCO3 [Compound 2b, 12-Hydroxy-9-phenyl-7-(thiomorpholinomethyl)-2,3,4,5-tetrahydro-[1,4]dioxocino[2,3-g]chromen-11-one]	27.19 ± 0.07	202.3 to 203.6	–	10.18 ± 0.08	–	–
O=c1cc(-c2ccccc2)oc2c(CN3CCSCC3)c(O)c(O)c(O)c12 [Compound 1b]	31.71 ± 0.08	–	–	0.09 ± 0.03	–	–
COc1ccc(-c2cc(=O)c3c(O)cc(OC)cc3o2)cc1 [Compound 12b, 5-Hydroxy-7-methoxy-2-(4-methoxyphenyl)-4H-chromen-4-one]	32.4 ± 0.11	–	–	7.93 ± 0.08	–	–
O=c1cc(-c2ccccc2)oc2cc(OCCBr)cc(O)c12 [Compound 7c, 7-(2-Bromoethoxy)-5-hydroxy-2-phenyl-4H-chromen-4-one]	22.74 ± 0.11	169.3 to 170.1	–	–	–	–
CN(C)Cc1c(O)cc(O)c2c(=O)cc(-c3ccccc3)oc12 [Compound 6d, 8-((Dimethylamino)methyl)-5,7-dihydroxy-2-phenyl-4H-chromen-4-one]	31.24 ± 0.08	241.9 to 242.3	–	7.46 ± 0.06	–	–
O=c1cc(-c2ccccc2)oc2c(CN3CCCC3)c(O)cc(O)c12 [Compound 6a, 5,7-Dihydroxy-2-phenyl-8-(pyrrolidin-1-ylmethyl)-4H-chromen-4-one]	35.95 ± 0.09	192.9 to 193	51.4 ± 1.68	6.3 ± 0.07	4.45	229 ± 4.55
CN(C)Cc1c2c(c(O)c3c(=O)cc(-c4ccccc4)oc13)OCCCCO2 [Compound 2c, 7-((Dimethylamino)methyl)-12-hydroxy-9-phenyl-2,3,4,5-tetrahydro-[1,4]dioxocino[2,3-g]chromen-11-one]	29.4 ± 0.09	208.5 to 210.6	–	10.96 ± 0.09	–	–
O=c1cc(-c2ccccc2)oc2cc(O)cc(O)c12 [chrysin, reference compound]	32.77 ± 0.09	–	36.6 ± 1.23	–	6.13	225 ± 3.46
COc1ccc(-c2cc(=O)c3c(O)c(CN4CCN(C)CC4)c(O)c(CN4CCN(C)CC4)c3o2)cc1 [Compound 10c, 5,7-Dihydroxy-2-(4-methoxyphenyl)-6,8-bis((4-methylpiperazin-1-yl)methyl)-4H-chromen-4-one]	27.7 ± 0.12	161.8 to 161.9	–	8.57 ± 0.09	–	–
O=c1cc(-c2ccccc2)oc2c(CN3CCOCC3)c(O)cc(O)c12 [Compound 6b, 5,7-Dihydroxy-8-(morpholinomethyl)-2-phenyl-4H-chromen-4-one]	34.47 ± 0.12	217.6 to 219.5	–	9.36 ± 0.09	–	–
CN1CCN(Cc2c(O)c(CN3CCN(C)CC3)c3oc(-c4ccccc4)cc(=O)c3c2O)CC1 [Compound 5e, 5,7-Dihydroxy-6,8-bis((4-methylpiperazin-1-yl)methyl)-2-phenyl-4H-chromen-4-one]	26.75 ± 0.1	–	–	–	–	–
O=c1cc(-c2ccccc2)oc2cc(OCc3ccccc3)cc(O)c12 [Compound 7a, 7-(Benzyloxy)-5-hydroxy-2-phenyl-4H-chromen-4-one]	39.51 ± 0.06	–	55 ± 1.45	–	2.37	130 ± 2.84
COc1cc2oc(-c3ccccc3)cc(=O)c2c(O)c1CN1CCOCC1 [Compound 8a, 5-Hydroxy-7-methoxy-6-(morpholinomethyl)-2-phenyl-4H-chromen-4-one]	31.04 ± 0.1	187 to 188.6	–	–	–	–
CN(C)Cc1c(O)c(O)c(O)c2c(=O)cc(-c3ccccc3)oc12 [Compound 1c]	29.28 ± 0.11	–	–	–	–	–
O=c1cc(-c2ccccc2)oc2cc(O)c(O)c(O)c12 [baicalein, reference compound]	18.85 ± 0.09	–	62.7 ± 1.52	–	5.65	354 ± 5.67
